From paper PMC6704710, “Preclinical evaluation of 3D185, a novel potent inhibitor of FGFR1/2/3 and CSF-1R, in FGFR-dependent and macrophage-dominant cancer models” (Journal of Experimental & Clinical Cancer Research : CR, 2019) come the findings set out here.

Usually inhibition stands for the drop in the measured response relative to a control, in per cent.

Holding throughout (test): Eurofins kinase panel
Format in all cases: biochemical
Details in all cases: read-out: Inhibition rate (%)

The target in one assay is T1, Fes(h) (Homo sapiens, UniProt P07332).
T1 construct: purchased Eurofins (KinaseProfiler)
T1 sequence (P07332 whole entry): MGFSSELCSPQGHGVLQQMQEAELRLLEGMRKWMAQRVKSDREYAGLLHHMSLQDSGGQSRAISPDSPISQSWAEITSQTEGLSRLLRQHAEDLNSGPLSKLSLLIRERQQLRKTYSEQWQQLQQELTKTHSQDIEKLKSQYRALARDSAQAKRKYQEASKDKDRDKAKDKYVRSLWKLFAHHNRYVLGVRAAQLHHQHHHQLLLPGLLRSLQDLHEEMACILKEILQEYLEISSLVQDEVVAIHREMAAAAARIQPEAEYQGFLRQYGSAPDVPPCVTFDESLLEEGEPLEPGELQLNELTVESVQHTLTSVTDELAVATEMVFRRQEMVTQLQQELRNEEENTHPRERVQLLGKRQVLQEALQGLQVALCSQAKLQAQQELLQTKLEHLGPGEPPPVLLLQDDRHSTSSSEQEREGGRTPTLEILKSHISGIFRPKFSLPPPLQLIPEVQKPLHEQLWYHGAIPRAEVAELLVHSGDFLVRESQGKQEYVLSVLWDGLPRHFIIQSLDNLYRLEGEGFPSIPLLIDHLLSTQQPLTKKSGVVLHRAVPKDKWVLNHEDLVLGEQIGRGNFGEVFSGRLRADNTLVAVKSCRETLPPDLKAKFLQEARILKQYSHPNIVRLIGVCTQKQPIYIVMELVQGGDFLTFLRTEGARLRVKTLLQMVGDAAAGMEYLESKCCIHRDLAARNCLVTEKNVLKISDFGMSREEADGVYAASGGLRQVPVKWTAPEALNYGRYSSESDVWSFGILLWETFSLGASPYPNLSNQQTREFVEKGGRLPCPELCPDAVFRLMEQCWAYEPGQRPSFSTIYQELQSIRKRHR

The next assay concerns the target T2, PKG1β(h) (Homo sapiens, UniProt Q13976).
T2 construct: purchased Eurofins (KinaseProfiler)
T2 sequence (Q13976 1-686 isoform Q13976-2): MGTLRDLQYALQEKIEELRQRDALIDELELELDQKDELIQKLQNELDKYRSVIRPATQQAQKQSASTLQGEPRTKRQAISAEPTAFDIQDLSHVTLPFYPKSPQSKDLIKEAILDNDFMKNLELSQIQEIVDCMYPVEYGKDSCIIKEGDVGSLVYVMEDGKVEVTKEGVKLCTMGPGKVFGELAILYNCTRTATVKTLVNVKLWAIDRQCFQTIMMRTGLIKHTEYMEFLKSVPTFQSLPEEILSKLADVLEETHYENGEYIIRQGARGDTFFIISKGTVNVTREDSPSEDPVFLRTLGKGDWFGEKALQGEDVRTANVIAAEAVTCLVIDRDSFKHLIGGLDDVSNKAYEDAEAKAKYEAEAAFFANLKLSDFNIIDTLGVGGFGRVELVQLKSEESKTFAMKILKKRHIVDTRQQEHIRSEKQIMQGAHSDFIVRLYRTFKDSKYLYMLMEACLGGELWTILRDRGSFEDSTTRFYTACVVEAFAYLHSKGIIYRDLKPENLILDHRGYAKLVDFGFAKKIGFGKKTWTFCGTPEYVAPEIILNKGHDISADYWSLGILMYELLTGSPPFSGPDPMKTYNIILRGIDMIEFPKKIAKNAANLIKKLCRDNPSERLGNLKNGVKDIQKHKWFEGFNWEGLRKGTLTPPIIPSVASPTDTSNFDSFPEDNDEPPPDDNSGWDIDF

Another assay addresses T3, TrkC(h) (Homo sapiens, UniProt Q16288).
T3 construct: purchased Eurofins (KinaseProfiler)

The target in a further assay is T4, ALK1(h) (Homo sapiens, UniProt P37023).
T4 construct: purchased Eurofins (KinaseProfiler)
T4 sequence (P37023 22-503): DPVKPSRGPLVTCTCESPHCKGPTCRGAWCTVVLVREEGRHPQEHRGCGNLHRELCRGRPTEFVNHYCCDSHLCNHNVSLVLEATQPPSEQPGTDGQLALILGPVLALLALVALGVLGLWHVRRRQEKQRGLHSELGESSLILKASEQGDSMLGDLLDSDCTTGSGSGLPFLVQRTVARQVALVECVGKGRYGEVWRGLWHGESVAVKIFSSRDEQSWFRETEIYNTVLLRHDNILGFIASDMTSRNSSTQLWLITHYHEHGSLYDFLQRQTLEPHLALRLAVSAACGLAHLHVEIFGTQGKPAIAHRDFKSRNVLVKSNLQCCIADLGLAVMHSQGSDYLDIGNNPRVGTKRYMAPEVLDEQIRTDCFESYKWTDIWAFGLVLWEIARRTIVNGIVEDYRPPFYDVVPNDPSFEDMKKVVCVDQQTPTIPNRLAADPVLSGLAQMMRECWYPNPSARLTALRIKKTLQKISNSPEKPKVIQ

A further assay concerns the target T5, JAK3(h) (Homo sapiens, UniProt P52333).
T5 construct: purchased Eurofins (KinaseProfiler)
T5 sequence (P52333 1-1124): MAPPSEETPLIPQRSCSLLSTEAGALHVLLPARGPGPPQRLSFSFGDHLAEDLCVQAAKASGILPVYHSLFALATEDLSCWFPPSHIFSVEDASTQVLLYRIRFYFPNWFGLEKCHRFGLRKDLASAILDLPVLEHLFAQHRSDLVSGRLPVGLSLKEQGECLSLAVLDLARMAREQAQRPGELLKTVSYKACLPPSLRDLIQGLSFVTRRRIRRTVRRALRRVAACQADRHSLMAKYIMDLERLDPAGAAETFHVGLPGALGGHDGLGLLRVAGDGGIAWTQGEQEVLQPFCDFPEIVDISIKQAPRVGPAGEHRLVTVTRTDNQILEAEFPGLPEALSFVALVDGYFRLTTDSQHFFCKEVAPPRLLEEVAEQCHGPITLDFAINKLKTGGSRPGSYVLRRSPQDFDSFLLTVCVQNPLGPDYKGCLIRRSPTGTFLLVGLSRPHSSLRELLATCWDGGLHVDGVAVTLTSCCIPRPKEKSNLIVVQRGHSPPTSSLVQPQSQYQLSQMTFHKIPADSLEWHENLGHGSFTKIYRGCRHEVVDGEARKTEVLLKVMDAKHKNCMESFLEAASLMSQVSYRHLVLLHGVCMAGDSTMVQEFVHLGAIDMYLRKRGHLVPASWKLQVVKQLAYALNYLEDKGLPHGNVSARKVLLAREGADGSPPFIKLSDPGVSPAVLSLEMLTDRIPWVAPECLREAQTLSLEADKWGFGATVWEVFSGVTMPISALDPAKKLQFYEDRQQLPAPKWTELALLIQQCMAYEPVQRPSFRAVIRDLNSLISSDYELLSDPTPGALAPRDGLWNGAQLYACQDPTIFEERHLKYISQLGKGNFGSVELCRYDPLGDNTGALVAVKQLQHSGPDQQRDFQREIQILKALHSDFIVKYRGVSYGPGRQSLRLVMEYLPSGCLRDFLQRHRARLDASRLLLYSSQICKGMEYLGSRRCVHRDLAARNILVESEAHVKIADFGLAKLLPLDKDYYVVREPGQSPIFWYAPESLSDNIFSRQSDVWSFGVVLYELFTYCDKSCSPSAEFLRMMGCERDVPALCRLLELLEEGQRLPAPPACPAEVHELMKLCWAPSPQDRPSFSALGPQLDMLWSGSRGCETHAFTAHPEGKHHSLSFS

For another assay, the target named is T6, MST2(h) (Homo sapiens, UniProt Q13188).
T6 construct: purchased Eurofins (KinaseProfiler)
T6 sequence (Q13188 1-491): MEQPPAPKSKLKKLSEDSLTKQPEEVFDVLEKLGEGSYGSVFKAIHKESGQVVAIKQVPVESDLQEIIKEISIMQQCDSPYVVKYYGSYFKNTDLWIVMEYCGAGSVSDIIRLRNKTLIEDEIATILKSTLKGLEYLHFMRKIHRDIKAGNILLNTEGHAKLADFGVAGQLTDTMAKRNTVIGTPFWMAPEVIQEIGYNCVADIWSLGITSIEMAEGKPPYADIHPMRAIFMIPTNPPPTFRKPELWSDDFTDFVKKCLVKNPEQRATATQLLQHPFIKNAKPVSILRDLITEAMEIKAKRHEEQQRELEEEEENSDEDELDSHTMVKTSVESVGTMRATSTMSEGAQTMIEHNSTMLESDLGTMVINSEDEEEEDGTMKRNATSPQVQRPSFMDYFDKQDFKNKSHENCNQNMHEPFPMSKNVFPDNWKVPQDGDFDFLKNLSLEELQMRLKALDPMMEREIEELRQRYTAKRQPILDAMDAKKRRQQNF

T3 sequence (Q16288 32-839): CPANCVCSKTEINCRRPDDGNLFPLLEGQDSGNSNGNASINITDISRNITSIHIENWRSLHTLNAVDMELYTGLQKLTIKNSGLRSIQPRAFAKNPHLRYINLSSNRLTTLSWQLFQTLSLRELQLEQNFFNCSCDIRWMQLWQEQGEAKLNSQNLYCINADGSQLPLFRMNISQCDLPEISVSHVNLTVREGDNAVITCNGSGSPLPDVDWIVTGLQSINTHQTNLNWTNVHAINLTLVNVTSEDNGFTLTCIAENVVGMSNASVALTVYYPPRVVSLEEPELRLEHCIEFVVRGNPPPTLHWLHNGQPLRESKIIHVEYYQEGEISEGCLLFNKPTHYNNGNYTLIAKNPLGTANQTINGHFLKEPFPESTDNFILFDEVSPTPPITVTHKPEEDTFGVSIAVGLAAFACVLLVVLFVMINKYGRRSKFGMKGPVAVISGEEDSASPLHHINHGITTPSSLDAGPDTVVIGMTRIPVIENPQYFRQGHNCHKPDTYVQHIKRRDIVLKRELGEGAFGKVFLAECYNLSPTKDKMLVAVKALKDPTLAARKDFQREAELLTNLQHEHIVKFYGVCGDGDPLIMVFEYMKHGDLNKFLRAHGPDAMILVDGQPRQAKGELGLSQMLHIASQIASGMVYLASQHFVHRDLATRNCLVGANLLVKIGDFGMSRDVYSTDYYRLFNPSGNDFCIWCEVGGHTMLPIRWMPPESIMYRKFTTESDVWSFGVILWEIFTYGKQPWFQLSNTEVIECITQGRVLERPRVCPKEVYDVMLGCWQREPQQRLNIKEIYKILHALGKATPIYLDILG

Take `COc1cc(OC)c(Cl)c(-c2ccc3c(NC(=O)c4ccc(N5CCNC(C)(C)C5)cc4)n[nH]c3n2)c1Cl` [3D185]: the inhibition at 0.01 µM at Fes(h) (10 nM) was -8%; at PKG1β(h) (10 nM), 12%; on TrkC(h) (10 nM), 36%; at ALK1(h) (10 nM), 3%; on JAK3(h) (10 nM) it was -11%; on MST2(h) (10 nM), 16%. The inhibition at 0.1 µM at Fes(h) (100 nM) was 36%; at PKG1β(h) (100 nM), 1%; at TrkC(h) (100 nM), 85%; at ALK1(h) (100 nM), -7%; on JAK3(h) (100 nM), 0%; at MST2(h) (100 nM), 41%. Also, the inhibition at 1 µM was 91% at Fes(h) (1000 nM); 4% on PKG1β(h) (1000 nM); 98% on TrkC(h) (1000 nM); -1% on ALK1(h) (1000 nM); 10% on JAK3(h) (1000 nM); 65% on MST2(h) (1000 nM).
